Assays:
SF-539 = assay: NCI-60 SRB screen; type: cell-based; details: Homo sapiens; SF-539, 10^–5 Molar; read-out: Percent growth inhibition
Experimental: (§1) All newly synthesized compounds were selected and screened for anticancer activity against 60 human cancer cell lines representing 9 types of tumors including leukemia, melanoma, lung, colon, CNS, ovarian, renal, prostate, and breast cancers at the National Cancer Institute (NCI), Bethesda, USA. Screening was performed utilizing a single dose (10^−5 M concentration) and cells were incubated for 48 h. The end point was determined using sulforhodamine B (SRB) dye.
(§2) In this study, all the 16 newly synthesized compounds were submitted to the National Cancer Institute (USA) for anticancer evaluation and were selected and evaluated using 60 different human tumor cell lines representing lung, colon, CNS, ovarian, renal, prostate, breast cancers as well as leukemia and melanoma. A single dose (10^–5 Molar) was used for the initial screening for evaluation of anticancer activity. The 60 human cancer cell lines were provided by the national cancer institute biomedical research campus in Frederick, Maryland.
(§3) 60 different human cancer cell lines were utilized to screen the newly synthesized compounds for anticancer activity according to the previously reported standard procedure[24]–[26] as follows: • 96 well microtiter plates were used to inoculate the cells at […] ranging from 4000–5000 cells/well depending on the replication time of individual cell lines. Roswell Park Memorial Institute culture medium (RPMI 1640 medium) containing 2 mM L-glutamine and fetal bovine serum was used to grow the cells at 37 °C, 5% CO2, 95% air and 100% relative humidity for 24 h. • Fixation of cells in two plates of each cell line in situ was done using trichloroacetic acid (TCA). This represented the measurement of cell population at the time of drug addition (Tz). • Dimethyl sulfoxide (DMSO) was used to dissolve the synthesized compounds at 400-fold the desired final maximum concentration and frozen prior to use. This frozen concentrate was melted and diluted to twice the final concentration with complete medium containing 50 µg/mL gentamycin at time of drug addition. • The final compound concentration was obtained by adding 100 µL of the synthesized compounds to the appropriate microtiter wells already containing 100 µL followed by incubation of the plates at 37 °C, 5% CO2, 95% air and 100% relative humidity for 48 h. • Fixation of the cells was achieved by gentle addition of 50 µL of cold 50% (w/v) TCA followed by incubation for 60 min at 4 °C. The supernatant was then discarded and the plates are washed 5 times with tap water and air dried. • Sulphorhodamine B (SRB) solution (100 µL) at 0.4% (w/v) in 1% acetic acid was added to each plate followed by incubation for 10 min at room temperature. The unbound dye was then removed by washing five times with 1% acetic acid and plates were air dried. • Dissolution of the bound stain was done using […] trizma base and the absorbance was read at […] wavelength using an automated plate reader. • The percentage growth inhibition was calculated as follows: Ti-Tz/C-Tz×100forconcentrationswhichTi≥Tz Ti-Tz/Tz×100forconcentrationswhichTi<Tz • Time zero (Tz) • Control growth (C) • Test growth in the presence of drug (Ti)

786-0 = assay: NCI-60 SRB screen; type: cell-based; details: Homo sapiens; 786-0, 10^–5 Molar; read-out: Percent growth inhibition
Experimental: as §1, §2, §3

NCI-H522 = assay: NCI-60 SRB screen; type: cell-based; details: Homo sapiens; NCI-H522, 10^–5 Molar; read-out: Percent growth inhibition
Experimental: as §1, §2, §3

OVCAR-5 = assay: NCI-60 SRB screen; type: cell-based; details: Homo sapiens; OVCAR-5, 10^–5 Molar; read-out: Percent growth inhibition
Experimental: as §1, §2, §3

OVCAR-8 = assay: NCI-60 SRB screen; type: cell-based; details: Homo sapiens; OVCAR-8, 10^–5 Molar; read-out: Percent growth inhibition
Experimental: as §1, §2, §3

CAKI-1 = assay: NCI-60 SRB screen; type: cell-based; details: Homo sapiens; CAKI-1, 10^–5 Molar; read-out: Percent growth inhibition
Experimental: as §1, §2, §3

MDA-MB-468 = assay: NCI-60 SRB screen; type: cell-based; details: Homo sapiens; MDA-MB-468, 10^–5 Molar; read-out: Percent growth inhibition
Experimental: as §1, §2, §3

OVCAR-4 = assay: NCI-60 SRB screen; type: cell-based; details: Homo sapiens; OVCAR-4, 10^–5 Molar; read-out: Percent growth inhibition
Experimental: as §1, §2, §3

NCI-H322M = assay: NCI-60 SRB screen; type: cell-based; details: Homo sapiens, 10^–5 Molar, read-out: Percent growth inhibition
Experimental: as §1, §2, §3

U251 = assay: NCI-60 SRB screen; type: cell-based; details: Homo sapiens, U-251; U251, 10^–5 Molar; read-out: Percent growth inhibition
Experimental: as §1, §2, §3

NCI-H23 = assay: NCI-60 SRB screen; type: cell-based; details: Homo sapiens; NCI-H23, 10^–5 Molar; read-out: Percent growth inhibition
Experimental: as §1, §2, §3

HS 578T = assay: NCI-60 SRB screen; type: cell-based; details: Homo sapiens, 10^–5 Molar, read-out: Percent growth inhibition
Experimental: as §1, §2, §3

SF-268 = assay: NCI-60 SRB screen; type: cell-based; details: Homo sapiens; SF-268, 10^–5 Molar; read-out: Percent growth inhibition
Experimental: as §1, §2, §3

MDA-MB-231/ATCC = assay: NCI-60 SRB screen; type: cell-based; details: Homo sapiens, 10^–5 Molar, read-out: Percent growth inhibition
Experimental: as §1, §2, §3

UO-31 = assay: NCI-60 SRB screen; type: cell-based; details: Homo sapiens; UO-31, 10^–5 Molar; read-out: Percent growth inhibition
Experimental: as §1, §2, §3

BT-549 = assay: NCI-60 SRB screen; type: cell-based; details: Homo sapiens; BT-549, 10^–5 Molar; read-out: Percent growth inhibition
Experimental: as §1, §2, §3

SF-295 = assay: NCI-60 SRB screen; type: cell-based; details: Homo sapiens; SF-295, 10^–5 Molar; read-out: Percent growth inhibition
Experimental: as §1, §2, §3

MALME-3M = assay: NCI-60 SRB screen; type: cell-based; details: Homo sapiens, 10^–5 Molar, read-out: Percent growth inhibition
Experimental: as §1, §2, §3

K-562 = assay: NCI-60 SRB screen; type: cell-based; details: Homo sapiens, K562; K-562, 10^–5 Molar; read-out: Percent growth inhibition
Experimental: as §1, §2, §3

ACHN = assay: NCI-60 SRB screen; type: cell-based; details: Homo sapiens, 10^–5 Molar, read-out: Percent growth inhibition
Experimental: as §1, §2, §3

UACC-62 = assay: NCI-60 SRB screen; type: cell-based; details: Homo sapiens; UACC-62, 10^–5 Molar; read-out: Percent growth inhibition
Experimental: as §1, §2, §3

SNB-75 = assay: NCI-60 SRB screen; type: cell-based; details: Homo sapiens; SNB-75, 10^–5 Molar; read-out: Percent growth inhibition
Experimental: as §1, §2, §3

LOX IMVI = assay: NCI-60 SRB screen; type: cell-based; details: Homo sapiens, 10^–5 Molar, read-out: Percent growth inhibition
Experimental: as §1, §2, §3

SK-MEL-28 = assay: NCI-60 SRB screen; type: cell-based; details: Homo sapiens; SK-MEL-28, 10^–5 Molar; read-out: Percent growth inhibition
Experimental: as §1, §2, §3

A498 = assay: NCI-60 SRB screen; type: cell-based; details: Homo sapiens; A498, 10^–5 Molar; read-out: Percent growth inhibition
Experimental: as §1, §2, §3

M14 = assay: NCI-60 SRB screen; type: cell-based; details: Homo sapiens; M14, 10^–5 Molar; read-out: Percent growth inhibition
Experimental: as §1, §2, §3

MDA-MB-435 = assay: NCI-60 SRB screen; type: cell-based; details: Homo sapiens; MDA-MB-435, 10^–5 Molar; read-out: Percent growth inhibition
Experimental: as §1, §2, §3

PC-3 = assay: NCI-60 SRB screen; type: cell-based; details: Homo sapiens; PC-3, 10^–5 Molar; read-out: Percent growth inhibition
Experimental: as §1, §2, §3

MCF7 = assay: NCI-60 SRB screen; type: cell-based; details: Homo sapiens; MCF7, 10^–5 Molar; read-out: Percent growth inhibition
Experimental: as §1, §2, §3

[1] = system: 60 human cancer cell lines; assay: NCI-60 SRB screen, whole panel; type: cell-based; details: Homo sapiens, 48 h; One Dose Mean Graph, Conc 1.00E-5 Molar; read-out: Mean Growth Percent
SN12C = assay: NCI-60 SRB screen; type: cell-based; details: Homo sapiens, 10^–5 Molar, read-out: Percent growth inhibition
Experimental: as §1, §2, §3

HCT-15 = assay: NCI-60 SRB screen; type: cell-based; details: Homo sapiens; HCT-15, 10^–5 Molar; read-out: Percent growth inhibition
Experimental: as §1, §2, §3

CCn1cc(C(=O)O)c(=O)c2cc(F)c(N3CCN(CC(=O)Nc4ccc(OC)cc4)C(C)C3)c(F)c21 (stereo not shown) [Compound 5c, 1-Ethyl-6,8-difluoro-7-(4-(2-((4-methoxyphenyl)amino)-2-oxoethyl)-3-methylpiperazin-1-yl)-4-oxo-1,4-dihydroquinoline-3-carboxylic acid]
inhibition at 10 µM (SF-539): 3.21% | inhibition at 10 µM (786-0): 4.78% | inhibition at 10 µM (NCI-H522): 6.89% | inhibition at 10 µM (OVCAR-5): 0.25% | inhibition at 10 µM (OVCAR-8): 3.62% | inhibition at 10 µM (CAKI-1): 11.4% | inhibition at 10 µM (MDA-MB-468): 3.75% | inhibition at 10 µM (OVCAR-4): 8.21% | inhibition at 10 µM (NCI-H322M): 5.28% | inhibition at 10 µM (U251): 0.32% | inhibition at 10 µM (NCI-H23): 0.84% | inhibition at 10 µM (HS 578T): 8.53% | inhibition at 10 µM (SF-268): 8.23% | inhibition at 10 µM (MDA-MB-231/ATCC): 13.7% | inhibition at 10 µM (UO-31): 19.1% | inhibition at 10 µM (BT-549): 3.31% | inhibition at 10 µM (SF-295): 2% | inhibition at 10 µM (MALME-3M): 3.82% | inhibition at 10 µM (K-562): 5.75% | inhibition at 10 µM (ACHN): 0.45% | inhibition at 10 µM (UACC-62): 12.6% | inhibition at 10 µM (SNB-75): 12.8% | inhibition at 10 µM (LOX IMVI): 14% | inhibition at 10 µM (SK-MEL-28): 5.79% | inhibition at 10 µM (A498): 24.1% | inhibition at 10 µM (M14): 2.85% | inhibition at 10 µM (MDA-MB-435): 6.19% | inhibition at 10 µM (PC-3): 4.07% | inhibition at 10 µM (MCF7): 1.91% | activity at 10 µM [1]: 98.8% | melting point: 196 to 198 °C

CCn1cc(C(=O)O)c(=O)c2cc(F)c(N3CCN(CC(=O)Nc4ccc(S(=O)(=O)Nc5ncccn5)cc4)C(C)C3)c(F)c21 (stereo not shown) [Compound 5e, 1-Ethyl-6,8-difluoro-7-(3-methyl-4-(2-oxo-2-((4-(N-(pyrimidin-2-yl)sulfamoyl)phenyl)amino)ethyl)piperazin-1-yl)-4-oxo-1,4-dihydroquinoline-3-carboxylic acid]
inhibition at 10 µM (CAKI-1): 7.59% | inhibition at 10 µM (HS 578T): 2.04% | inhibition at 10 µM (SF-268): 1.55% | inhibition at 10 µM (SN12C): 3.07% | inhibition at 10 µM (UO-31): 9.64% | inhibition at 10 µM (K-562): 1.07% | inhibition at 10 µM (HCT-15): 2.43% | inhibition at 10 µM (UACC-62): 7.88% | inhibition at 10 µM (SNB-75): 6.39% | inhibition at 10 µM (MCF7): 5.24% | activity at 10 µM [1]: 106% | melting point: 282 to 284 °C

From paper PMC10940605, “Design, synthesis and in vitro anticancer activity of some new lomefloxacin derivatives” (Scientific Reports, 2024)
